Data published in paper doi:10.1101/2025.11.20.689572v1 (biorxiv, 2025).
Like-named read-outs stand apart in the source and are kept apart here.

Assays:
M5 = target: T1, M5 (Homo sapiens, UniProt P08912); test: competitive radioligand binding, HEK293 membranes
T1 construct: gene CHRM5; full-length receptor; HEK293 with TRUPATH sensors (function)
T1 sequence (P08912 1-532): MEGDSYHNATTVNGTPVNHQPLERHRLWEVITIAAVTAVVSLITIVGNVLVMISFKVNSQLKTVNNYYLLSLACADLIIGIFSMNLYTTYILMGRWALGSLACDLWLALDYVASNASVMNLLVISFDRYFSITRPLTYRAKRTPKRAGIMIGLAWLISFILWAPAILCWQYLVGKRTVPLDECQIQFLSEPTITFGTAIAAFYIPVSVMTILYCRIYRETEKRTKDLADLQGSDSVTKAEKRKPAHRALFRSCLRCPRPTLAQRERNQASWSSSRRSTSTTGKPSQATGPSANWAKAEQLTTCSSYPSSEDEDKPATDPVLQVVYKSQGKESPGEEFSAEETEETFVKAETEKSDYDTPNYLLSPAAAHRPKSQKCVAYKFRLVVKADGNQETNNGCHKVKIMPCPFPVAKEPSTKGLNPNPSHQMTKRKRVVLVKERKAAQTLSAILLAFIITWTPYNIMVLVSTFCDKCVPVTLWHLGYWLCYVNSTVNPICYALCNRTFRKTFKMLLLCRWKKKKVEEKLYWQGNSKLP

SSTR4 [1] = target: T2, SSTR4 (Homo sapiens, UniProt P31391); test: cell-based; parameters: PRESTO-Tango beta-arrestin2 recruitment, luciferase luminescence, concentration-response; settings: HTLA, read-out: N-Desmethyl Xanomeline; Assay=Tango; agonist mode, % of control agonist
T2 sequence (P31391 whole entry): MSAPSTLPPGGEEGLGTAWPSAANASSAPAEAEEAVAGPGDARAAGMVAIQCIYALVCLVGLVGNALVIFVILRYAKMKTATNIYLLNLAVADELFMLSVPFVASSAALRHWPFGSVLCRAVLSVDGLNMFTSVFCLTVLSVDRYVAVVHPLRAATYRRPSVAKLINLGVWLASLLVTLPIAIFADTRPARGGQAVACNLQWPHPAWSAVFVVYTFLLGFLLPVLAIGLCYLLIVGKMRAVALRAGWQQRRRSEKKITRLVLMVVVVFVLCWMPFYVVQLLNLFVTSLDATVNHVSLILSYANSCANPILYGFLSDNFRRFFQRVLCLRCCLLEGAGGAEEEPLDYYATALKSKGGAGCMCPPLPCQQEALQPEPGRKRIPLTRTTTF

SSTR4 [2] = target: T2, SSTR4; test: cell-based; parameters: species or system HTLA; PRESTO-Tango beta-arrestin2 recruitment, luciferase luminescence, concentration-response; settings: Assay=Tango; agonist mode
CHRM3 = CHRM3 (Homo sapiens, UniProt P20309); test: cell-based; parameters: species or system HTLA; PRESTO-Tango beta-arrestin2 recruitment, luciferase luminescence, concentration-response; settings: Assay=Tango; agonist mode
Chain of CHRM3 (P20309 whole entry): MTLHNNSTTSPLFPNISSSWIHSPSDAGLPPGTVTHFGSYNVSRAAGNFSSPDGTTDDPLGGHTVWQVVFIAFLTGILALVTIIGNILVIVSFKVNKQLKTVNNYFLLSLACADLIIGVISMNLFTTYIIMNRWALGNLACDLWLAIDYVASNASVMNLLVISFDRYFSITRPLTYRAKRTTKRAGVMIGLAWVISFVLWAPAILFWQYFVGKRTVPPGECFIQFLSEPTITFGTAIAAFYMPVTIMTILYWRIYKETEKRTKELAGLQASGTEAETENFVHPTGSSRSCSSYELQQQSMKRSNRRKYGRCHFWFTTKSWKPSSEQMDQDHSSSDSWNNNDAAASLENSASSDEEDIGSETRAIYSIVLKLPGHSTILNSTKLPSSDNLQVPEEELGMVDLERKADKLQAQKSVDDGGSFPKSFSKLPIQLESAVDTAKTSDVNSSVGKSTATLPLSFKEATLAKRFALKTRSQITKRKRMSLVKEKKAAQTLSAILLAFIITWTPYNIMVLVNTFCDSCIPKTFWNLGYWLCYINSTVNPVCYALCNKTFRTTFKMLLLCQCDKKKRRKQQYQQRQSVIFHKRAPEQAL

HTR2A [3] = target: T3, HTR2A (Homo sapiens, UniProt P28223); test: cell-based; parameters: Fluo-4 Direct calcium mobilization on FLIPR-Tetra; settings: HEK293, read-out: N-Desmethyl Xanomeline; Assay=Calcium; agonist mode, % of control agonist
T3 sequence (P28223 whole entry): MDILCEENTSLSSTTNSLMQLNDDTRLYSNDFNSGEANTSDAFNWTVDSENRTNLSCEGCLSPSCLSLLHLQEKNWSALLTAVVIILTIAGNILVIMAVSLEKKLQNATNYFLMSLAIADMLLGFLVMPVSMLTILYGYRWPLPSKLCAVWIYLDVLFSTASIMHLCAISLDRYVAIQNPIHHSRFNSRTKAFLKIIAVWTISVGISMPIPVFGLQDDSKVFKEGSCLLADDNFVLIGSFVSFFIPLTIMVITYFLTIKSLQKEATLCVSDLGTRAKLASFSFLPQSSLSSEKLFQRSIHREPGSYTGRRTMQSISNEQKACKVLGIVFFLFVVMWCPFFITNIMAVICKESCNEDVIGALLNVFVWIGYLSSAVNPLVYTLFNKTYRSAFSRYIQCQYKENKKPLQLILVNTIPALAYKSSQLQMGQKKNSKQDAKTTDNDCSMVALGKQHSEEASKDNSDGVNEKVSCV

HTR2A [4] = target: T3, HTR2A; test: cell-based; parameters: TRUPATH BRET2 G-protein dissociation; antagonist mode against agonist EC80; settings: HEK293, read-out: N-Desmethyl Xanomeline, Assay=Gq; agonist mode, % of control agonist
HTR2C = target: T4, HTR2C (Homo sapiens, UniProt P28335); test: cell-based; parameters: species or system HEK293; Fluo-4 Direct calcium mobilization on FLIPR-Tetra; settings: Assay=Calcium; agonist mode
T4 sequence (P28335 1-458): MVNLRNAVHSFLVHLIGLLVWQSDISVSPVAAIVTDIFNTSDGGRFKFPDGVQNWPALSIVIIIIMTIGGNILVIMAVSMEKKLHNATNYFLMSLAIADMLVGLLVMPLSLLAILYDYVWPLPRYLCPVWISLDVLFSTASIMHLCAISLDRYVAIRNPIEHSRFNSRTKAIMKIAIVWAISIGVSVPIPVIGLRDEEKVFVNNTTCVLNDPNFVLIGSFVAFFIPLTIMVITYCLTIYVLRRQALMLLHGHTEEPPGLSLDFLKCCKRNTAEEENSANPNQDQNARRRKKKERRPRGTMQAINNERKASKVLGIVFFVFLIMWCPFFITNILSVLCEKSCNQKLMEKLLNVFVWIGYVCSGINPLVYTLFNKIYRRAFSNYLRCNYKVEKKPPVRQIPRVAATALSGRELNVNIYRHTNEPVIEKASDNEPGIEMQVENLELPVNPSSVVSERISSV

DRD4 = target: T5, DRD4 (Homo sapiens, UniProt P21917); test: cell-based; parameters: species or system HTLA; PRESTO-Tango beta-arrestin2 recruitment, luciferase luminescence, concentration-response; settings: Assay=Tango; agonist mode
T5 sequence (P21917 1-419): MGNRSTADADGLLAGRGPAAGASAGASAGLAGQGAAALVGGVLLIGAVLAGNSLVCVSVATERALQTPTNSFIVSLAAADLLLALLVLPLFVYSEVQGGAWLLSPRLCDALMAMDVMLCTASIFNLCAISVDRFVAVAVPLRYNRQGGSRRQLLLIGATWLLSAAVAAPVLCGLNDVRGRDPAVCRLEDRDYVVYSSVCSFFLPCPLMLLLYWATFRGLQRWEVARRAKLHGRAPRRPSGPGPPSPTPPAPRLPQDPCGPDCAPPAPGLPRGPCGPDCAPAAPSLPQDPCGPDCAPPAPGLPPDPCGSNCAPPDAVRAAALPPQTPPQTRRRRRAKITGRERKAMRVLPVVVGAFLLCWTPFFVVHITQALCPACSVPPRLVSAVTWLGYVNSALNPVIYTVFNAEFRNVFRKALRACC

SMILES | Ki (M5) | Emax (SSTR4 [1]) | EC50 (SSTR4 [2]) | EC50 (CHRM3) | Emax (HTR2A [3]) | Emax (HTR2A [4]) | EC50 (HTR2C) | EC50 (DRD4)
CCCCCCOc1nsnc1C1=CCCNC1 [N-desmethylxanomeline] | 93.3 nM | 2.88% | 931 nM | 104 nM | 63.4% | 98.1% | 1090 nM | –
CCCCCCOc1nsnc1C1=CCCN(C)C1 [Xanomeline] | – | – | – | – | – | – | – | 4800 nM
